Results reported in ChEMBL document CHEMBL4190379 (Bioorg Med Chem Lett, 2018).

Legend:
[1] = Intrinsic unbound clearance in mouse liver microsomes; assay type: ADME, microsome
[2] = AUC in mouse at 10 mg/kg, po; assay type: ADME, organism-based; details: in vivo
OPM-2 [3] = assay: Antitumor activity against human OPM2 cells xenografted in SCID-beige mouse assessed as inhibition of tumor growth administered once daily orally for 28 days starting from 18 days post tumor inoculation; assay type: functional, cell-based
OPM-2 [4] = assay: Antitumor activity against human OPM2 cells xenografted in SCID-beige mouse assessed as inhibition of tumor growth at 3.75 mg/kg, po qd administered for 28 days starting from 18 days post tumor inoculation; assay type: functional; details: OPM-2, po, read-out: TGI
OPM-2 [5] = assay: Antitumor activity against human OPM2 cells xenografted in SCID-beige mouse assessed as inhibition of tumor growth at 7.5 mg/kg, po qd administered for 28 days starting from 18 days post tumor inoculation; assay type: functional; details: OPM-2, po, read-out: TGI
Mus musculus [6] = assay: Toxicity in human OPM2 cells xenografted SCID-beige mouse assessed as body weight loss at 3.75 mg/kg, po qd administered for 28 days starting from 18 days post tumor inoculation; assay type: organism-based; details: in vivo
Mus musculus [7] = assay: Toxicity in human OPM2 cells xenografted SCID-beige mouse assessed as body weight loss at 7.5 mg/kg, po qd administered for 28 days starting from 18 days post tumor inoculation; assay type: organism-based; details: in vivo
[8] = target: T1, Transcription intermediary factor 1-alpha (Homo sapiens) (UniProt O15164); assay: Binding affinity to human TRIM24-phd-bromo expressed in bacterial system assessed as remaining binding level at 1 uM by BROMOscan assay relative to control
T1 sequence (whole entry): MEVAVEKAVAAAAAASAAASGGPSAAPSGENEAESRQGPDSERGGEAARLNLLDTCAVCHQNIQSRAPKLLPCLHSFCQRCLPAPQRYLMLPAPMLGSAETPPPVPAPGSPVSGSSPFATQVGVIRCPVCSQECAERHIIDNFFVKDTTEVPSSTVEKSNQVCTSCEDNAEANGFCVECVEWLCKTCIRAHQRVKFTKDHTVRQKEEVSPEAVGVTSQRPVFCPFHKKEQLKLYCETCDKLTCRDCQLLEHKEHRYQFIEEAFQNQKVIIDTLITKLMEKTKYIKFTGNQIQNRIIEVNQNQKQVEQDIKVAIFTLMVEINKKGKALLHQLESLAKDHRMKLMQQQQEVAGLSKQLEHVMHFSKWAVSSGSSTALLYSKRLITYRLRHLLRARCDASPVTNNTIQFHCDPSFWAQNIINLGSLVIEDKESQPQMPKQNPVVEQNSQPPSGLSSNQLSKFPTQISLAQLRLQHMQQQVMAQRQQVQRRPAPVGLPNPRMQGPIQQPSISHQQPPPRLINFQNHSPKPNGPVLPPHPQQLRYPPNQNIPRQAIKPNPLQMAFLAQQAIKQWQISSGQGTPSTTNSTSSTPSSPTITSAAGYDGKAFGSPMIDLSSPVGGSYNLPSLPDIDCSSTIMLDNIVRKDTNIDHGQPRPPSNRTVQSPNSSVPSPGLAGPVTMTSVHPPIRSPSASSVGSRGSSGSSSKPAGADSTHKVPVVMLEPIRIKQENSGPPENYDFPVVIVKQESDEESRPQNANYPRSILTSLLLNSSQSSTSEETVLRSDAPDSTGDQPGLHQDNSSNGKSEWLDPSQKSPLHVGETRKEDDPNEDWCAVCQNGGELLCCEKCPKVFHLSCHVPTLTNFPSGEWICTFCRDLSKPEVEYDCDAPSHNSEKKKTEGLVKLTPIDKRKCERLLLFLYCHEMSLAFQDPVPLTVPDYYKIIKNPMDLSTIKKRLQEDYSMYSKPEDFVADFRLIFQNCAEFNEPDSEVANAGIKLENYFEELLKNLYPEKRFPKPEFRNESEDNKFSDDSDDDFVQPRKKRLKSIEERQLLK

Mus musculus [9] = assay: Dose normalized AUC in mouse at 1 mg/kg, po; assay type: ADME, organism-based; details: in vivo
OPM-2 [10] = assay: Antitumor activity against human OPM2 cells xenografted in SCID-beige mouse assessed as inhibition of tumor growth at 0.31 mg/kg, po qd administered for 28 days starting from 18 days post tumor inoculation; assay type: functional; details: OPM-2, po, read-out: TGI
OPM-2 [11] = assay: Antitumor activity against human OPM2 cells xenografted in SCID-beige mouse assessed as inhibition of tumor growth at 0.62 mg/kg, po qd administered for 28 days starting from 18 days post tumor inoculation; assay type: functional; details: OPM-2, po, read-out: TGI
Mus musculus [12] = assay: Toxicity in human OPM2 cells xenografted SCID-beige mouse assessed as body weight loss at 0.31 mg/kg, po qd administered for 28 days starting from 18 days post tumor inoculation; assay type: organism-based; details: in vivo
Mus musculus [13] = assay: Toxicity in human OPM2 cells xenografted SCID-beige mouse assessed as body weight loss at 0.62 mg/kg, po qd administered for 28 days starting from 18 days post tumor inoculation; assay type: organism-based; details: in vivo
Mus musculus [14] = assay: Toxicity in human OPM2 cells xenografted SCID-beige mouse assessed as morbidity at 0.31 mg/kg, po qd administered for 28 days starting from 18 days post tumor inoculation; assay type: organism-based; details: in vivo

CL free [1] [mL/min/kg]	AUC [2] [µM·h]	Activity [8] [%]	AUC/dose (Mus musculus [9]) [µM·h]	Compound	TGI (OPM-2 [3])	inhibition in vivo at 3.75 mg/kg (OPM-2 [4]) [%]	inhibition in vivo at 7.5 mg/kg (OPM-2 [5]) [%]	Activity (Mus musculus [6]) [%]	Activity (Mus musculus [7]) [%]	inhibition in vivo at 0.31 mg/kg (OPM-2 [10]) [%]	inhibition in vivo at 0.62 mg/kg (OPM-2 [11]) [%]	Activity (Mus musculus [12]) [%]	Activity (Mus musculus [13]) [%]	Activity (Mus musculus [14])
317	2.8	90		Cn1cc2c3c(c[nH]c(=O)c31)-c1cc(CS(C)(=O)=O)ccc1N(c1ccc(F)cc1)C2	Dose-dependent effect	68	84	10	9					
533	12	67		Cn1cc2c3c(c[nH]c3c1=O)CN(c1ccc(F)cc1F)c1ccc(CS(C)(=O)=O)cc1-2										
233		54	3.5	Cn1cc2c3c(c[nH]c3c1=O)CN(c1ccccn1)c1ccc(CS(C)(=O)=O)cc1-2	Dose-dependent effect					60	94	0	5	Non-Toxic
